The test system of one data set is edema of rat auricle. Description: Anti-inflammatory activity (1): croton oil-induced auricle edema. It counts as in vivo, Wistar male rats. The following applies: 10^-3 M, 800 μl/auricle, 15 seconds, weighed after 6 hours, read-out: Edema inhibitory rate (%). How it is done: Test Method of Anti-inflammatory Activity (1) […] Wistar male rats, age 5 weeks, each group consisting of 5, were served for the test. The test samples and an inflammation-inducingbase material (control) were infiltrated into circular […]) fixed onto specially prepared tweezers and the right auricles of the animals were put between the tweezers to apply the samples (800 μl/auricle) for 15 seconds at a constant pressure of 500 gw. After 6 hours, the both auricles were punched (.phi. 9 mm) and weighed. An edema inhibitory rate determined by the following equation was taken as an index of the anti-inflammatory activity of the steroid samples. Edema inhibitory rate (%)=100-Y/Z×100 wherein Y is the weight difference (mg) of the right auricle to which the sample drug was applied and the untreated left auricle, and Z is the weight difference (mg) of the right auricle of the rat to which the inflammation-inducing base material was applied and the untreated left auricle.

Data set [1] can be described thus: Acute toxicity (oral administration). More on the design: species or system ICR mice (male). Particulars: mouse, in vivo, 14 days after administration, read-out: Viability (%). How it is done: Acute toxicity (oral administration) of the compound of the present invention was evaluated according to the following method. […]
A further data set relates to granuloma. Description: Anti-inflammatory activity (2): granuloma around embedded filter paper. It counts as in vivo, Wistar male rats. The following applies: 10^-2 M, 50 μl/paper, after 6 days; for inhibition at 10000 µM: Rattus norvegicus, 144 h, read-out: Granulating Inhibitory Rate (%). From the text:
Test Method of Anti-inflammatory Activity (2) Wistar male rats, age 5 weeks, each group consisting of 5-8 rats, were served for the test. […] The paper was embedded into the right back of the rats. Into the left back was embedded an untreated antibiotic test filter paper. After 6 days, the animals were sacrificed by bleeding and the backs were incised to extract each granuloma formed around the filter. The granuloma was dried and weighed. To the right backs of the control group antibiotic test filter papers infiltrated with 50 μl/paper of ethanol and dried were embedded.

The test system of a further data set is thymus. The experiment in a line: Systemic side effects: thymus weight. It counts as in vivo, ddY male mice. The following applies: 2 mM in peanut oil, s.c., two times at 24 hour interval; Means ± S.E. How it is done:
Systemic side effects of the compound of the present invention were evaluated according to the following method.
Suspensions of the test compounds (2 mM) in peanut oil were subcutaneously injected into the back of ddY male mice (weight: about 30 gm), 10 mice consisting of a test group, two times, once a day at a 24 hour interval. After 24 hours from the last injection, the mice were sacrificed to extract the thymus and to weigh its weight. For the control group only peanut oil was administered. The results are shown in […]

The test system of data set [2] is eosinophiles infiltration. Description: Anti-allergic activity: FMLP-induced eosinophiles infiltration in trachea. It counts as in vivo, guinea pigs (male). The following applies: positive control; after 4 hours (so in the source). How it is done:
Test Method of Anti-allergic Activity
To tracheas around the neck of guinea pigs (male; weight 200-300 gm) exposed under anesthesia with Nembutal (0.05 ml/animal, i.p.) were injected FMLP (10^-4 M), which is an inflammation-inducing compound, dissolved in 1% dimethylsulfoxide solution in physiological saline, individually o together with the test compound with a 26 guage needle. For the negative control, only dimethylsulfoxide was injected, and for the positive control betamethasone was administered. […] Eosinophiles infiltrated into the upper, middle, and lower parts of the trachea were counted by microscope. Numbers of eosinophiles found in tracheas to which the test compound was injected were compared with those to which FMLP was independently injected.

Like-named read-outs stand apart in the source and are kept apart here.

Regarding `CCCCC(=O)O[C@]1(C(=O)CO)[C@@H](C)C[C@H]2[C@@H]3CCC4=CC(=O)C=C[C@]4(C)[C@@]3(F)[C@@H](O)C[C@@]21C` [Betamethasone 17-valerate, betamethasone 17-valerate, reference compound], the inhibition at 1000 µM in the data set on edema of rat auricle came to 34%. Further, the survival at 336 h was found to be 100% in data set [1] (dose 1.7 (mg/kg)), 100% in data set [1] (dose 3.3 (mg/kg)) and 50% in data set [1] (dose 5 (mg/kg)). In addition, the “Dry weight of ganuloma” value with granuloma is reported as 15.0 mg. In the data set with granuloma, the inhibition at 10000 µM amounted to 26.6%.
As for `CSCC[C@H](NC=O)C(=O)SCC(=O)[C@@]1(O)[C@@H](C)C[C@H]2[C@@H]3CCC4=CC(=O)C=C[C@]4(C)[C@@]3(F)[C@@H](O)C[C@@]21C` [Compound No. 1, 9-Fluoro-21-[2-(formylamino)-4-methylthio-1-oxobutylthio]-11β,17-dihydroxy-16β-methylpregna-1,4-diene-3,20-dione], the inhibition at 1000 µM in the data set with edema of rat auricle stood at 44%. For the same molecule, the survival at 336 h in data set [1] (dose 1.7 (mg/kg)), in data set [1] (dose 3.3 (mg/kg)) and in data set [1] (dose 5 (mg/kg)) was 100% throughout. In addition, the “Dry weight of ganuloma” value in the data set with granuloma was 10.7 mg. Besides, the inhibition at 10000 µM in the data set with granuloma was 47.7%. In addition, the “Thymus weight/10 gm body weight” value in the data set with thymus was 23.4 ± 0.3 mg.
On to `CSCCC(NC=O)C(=O)SCC(=O)[C@@]1(O)[C@H](C)C[C@H]2[C@@H]3CC(F)C4=CC(=O)C=C[C@]4(C)[C@@]3(F)[C@H](O)C[C@@]21C` (stereo partly drawn) [Compound No. 5, 6,9-Difluoro-21-[2-(formylamino)-4-methylthio-1-oxobutylthio]-11α,17-dihydroxy-16α-methylpregna-1,4-diene-3,20-dione], for which the inhibition at 1000 µM with edema of rat auricle came out at 74%.
In the case of `CCCCC(=O)O[C@]1(C(=O)CSC(=O)[C@H](CCSC)NC=O)[C@@H](C)C[C@H]2[C@@H]3CCC4=CC(=O)C=C[C@]4(C)[C@@]3(F)[C@@H](O)C[C@@]21C` [Compound No. 6, 9-Fluoro-21-[2-(formylamino)-4-methylthio-1-oxobutylthio]-11β-hydroxy-16β-methyl-17-(1-oxopentyloxy)-pregna-1,4-diene-3,20-dione], in the data set with granuloma, the “Dry weight of ganuloma” value is given as 7.4 mg and the inhibition at 10000 µM came out at 63.9%.
For `C[C@H]1C[C@H]2[C@@H]3CCC4=CC(=O)C=C[C@]4(C)[C@@]3(F)[C@@H](O)C[C@]2(C)[C@@]1(O)C(=O)CO` [Betamethasone, betamethasone], the “eosinophiles infiltration inhibitory effect” value in data set [2] is given as “only a small effect”. The “Thymus weight/10 gm body weight” value in the data set on thymus worked out at 15.4 ± 1.4 mg.
Consider `C[C@]12CCC(=O)C=C1CC[C@@H]1[C@@H]2[C@@H](O)C[C@@]2(C)[C@H]1CC[C@]2(O)C(=O)CO` [Hydrocortisone, hydrocortisone, reference compound], for which the “Thymus weight/10 gm body weight” value with thymus came out at 20.8 ± 2.1 mg.
`CSCC[C@H](NC=O)C(=O)SCC(=O)[C@@]12OC(C)(C)O[C@@H]1C[C@H]1[C@@H]3CCC4=CC(=O)C=C[C@]4(C)[C@@]3(F)[C@@H](O)C[C@@]12C` [Compound No. 3, 9-Fluoro-21-[2-(formylamino)-4-methylthio-1-oxobutylthio]-11β-hydroxy-16α,17α-isopropylidenedioxypregna-1,4-diene-3,20-dione]: the inhibition at 1000 µM with edema of rat auricle amounted to 74%.

These data come from patent US5116829A, “Steroid compounds” (Kao Corporation, priority 1990, dated 1992).
